# Experimental data reported in ChEMBL document CHEMBL1151509, “Synthesis of active metabolites of indole pyrrolothiazole paf antagonists” (Bioorg Med Chem Lett, 1995).
# Legend:
# [1] = test system: Rattus norvegicus; experiment: Inhibition of PAF induced cutaneous vascular permeability in rat by intravenous administration; format: functional
# [2] = molecular target: Platelet-activating factor receptor (Rattus norvegicus, UniProt P46002); experiment: Inhibition of platelet activating factor(PAF) by binding to PAF receptor
# Sequence of Platelet-activating factor receptor (P46002 whole entry): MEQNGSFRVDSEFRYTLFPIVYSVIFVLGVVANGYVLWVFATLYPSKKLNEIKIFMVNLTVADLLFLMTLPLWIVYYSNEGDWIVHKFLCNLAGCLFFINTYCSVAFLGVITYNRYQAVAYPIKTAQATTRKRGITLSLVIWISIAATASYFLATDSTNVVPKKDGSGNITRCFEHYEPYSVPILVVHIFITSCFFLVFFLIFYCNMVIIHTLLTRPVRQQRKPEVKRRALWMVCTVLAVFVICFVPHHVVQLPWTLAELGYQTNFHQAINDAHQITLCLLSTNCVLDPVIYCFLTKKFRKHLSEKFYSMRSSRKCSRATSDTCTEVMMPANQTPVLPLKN
SMILES,"ED50 ([1]; Rattus norvegicus, iv, read-out: ED50) [mg/kg]",ED50 [1] [mg/kg],Ki [2] [nM]
CN(C)C(=O)n1cc(C(=O)c2ccn3c2CS[C@@H]3c2cccnc2)c2ccc(-c3ccc(F)cc3)cc21,0.006,–,–
CN(C)C(=O)n1cc(C(=O)c2ccn3c2C[S+]([O-])[C@@H]3c2cccnc2)c2ccc(-c3ccc(F)cc3)cc21 (stereo in doubt; trans),–,0.1,68
CN(C)C(=O)n1cc(C(=O)c2ccn3c2C[S+]([O-])[C@@H]3c2cccnc2)c2ccc(-c3ccc(F)cc3)cc21 (stereo in doubt; cis),–,0.025,8.5
